Measured values reported in patent US20230140453A1, “METHOD FOR CONTROLLING OBESITY BY REGULATING ACTIVITY OF TREK1” (KOREA INSTITUTE OF SCIENCE AND TECHNOLOGY, priority 2021, published 2023).

What was measured:
[1] = system: 3T3L1 cell line; test: Adipocyte differentiation inhibition by TREK1 activator (triglyceride amount) in 3T3L1 cells; assay type: cell-based; conditions: 10 μM, 25 μM
Procedure: (§1) 3T3-L1 cells were purchased from ATCC (American Type Culture Collection) and cultured in Dulbecco's Modified Eagle Medium (Gibco, N.Y., USA) with 10% (v/v) bovine serum (Gibco, N.Y., USA) and 1% v/v) penicillin/streptomycin (Thermo Fisher Scientific, N.J., USA). Cultures were maintained in a humidified 5% CO2 incubator at 37° C. After reaching 80% confluence, the differentiation of 3T3L1 cells was induced by replacing the medium with DMEM containing 10% FBS plus 1 μg/mL insulin, 0.5 mM isobutyl-1-methylxanthine (IBMX), 1 μM and 2 μM Rosiglitazone for 3 days. Afterward the medium was changed with DMEM containing 10% FBS plus 1 μg/mL insulin, and the cells were further cultured for 2 to 4 days. Culture medium contained a combination of IBMX, dexamethasone (Dex), insulin, rosiglitazone, and fetal bovine serum (FBS) to differentiate preadipocyte into mature adipocytes. After differentiation, experiments were conducted at three points. Each time the medium was changed over time, the cells were differentiated with IBMX medium for 3 days, and then changed to insulin medium every 2 days thereafter. As a result of confirmation by a microscope, the cell shape of 3T3-L1 was changed over time and intracellular lipid droplets were produced.
The 3T3L1 cell line, in which the same effect as in vivo and conditions was well confirmed, was treated with ML402, which has been reported to have an active effect on TREK1. Specifically, the cells were sampled on the 3rd, 5th, and 7th days by treating ML402 together from the time of differentiation at concentrations of 10 μM, 25 μM, and 100 μM, respectively.

[2] = system: 3T3L1 cells; test: Intracellular calcium ion concentration in 3T3L1 preadipocytes; assay type: cell-based
Text: In summary, the activity of TREK1, which is a potassium ion channel, was decreased in the process of differentiation into adipocytes, and as a result, the cell membrane potential was depolarized, and voltage-dependent calcium ion channels were activated, resulting in increasing intracellular calcium ion concentration and promoting the differentiation of adipocytes.

[3] = system: 3T3L1 cell line; test: Differentiation of 3T3L1 preadipocytes into adipocytes; assay type: cell-based
Procedure: The 3T3L1 cell line, a preadipocyte cell line, was treated with MDI (Dexamethasone, IBMX, insulin) as a differentiation-inducing agent, and differentiation was induced for 7 days, and the differentiation into adipocytes was confirmed by staining with oil red 0 (FIG. 1A).
as §1, with “As a result of confirmation by a microscope, the cell shape of 3T3-L1 was changed over time and intracellular lipid droplets were produced.” left out

[4] = system: primary cultured adipocytes; test: Differentiation of primary cultured adipocytes; assay type: cell-based, mouse (C57BL/6); conditions: primary cultured adipocytes treated with TREK1 inhibitor (FIG. 4 legend)
Procedure: (§2) The method for obtaining primary cultured adipocytes is as follows. Primary white adipocytes were isolated from inguinal WAT 6-8 week mouse (C57BL/6). The extracted WAT was washed in a 15 mL tube. The enzyme solution was mixed with collagenase Type II (Worthington Industries, Columbus, Ohio, USA) and PBS (Gibco, N.Y., USA), and the tissue was incubated in 20 mL enzyme solution in an incubator at 37° C. for 1 hour. After filtering, the tissue was added to a new 50 mL tube and centrifuged at 10,000 rpm for 10 minutes. The adipocytes floating in the solution were transferred to a new tube using a pipette. Then, the adipocytes were once more centrifuged in DMEM/F12 (Gibco, N.Y., USA) containing 10% (v/v) FBS. After transferring the fatty layer to the cell culture flask, and the flask was filled with DMEM/F12+mixture. The flask was inverted and incubated in a 37° C. CO2 incubator, and the medium was changed after about 5 days.

[5] = system: 3T3L1 cell line; test: Potassium ion conductivity by patch clamp in undifferentiated 3T3L1 cells; assay type: cell-based; conditions: undifferentiated condition, patch clamp (FIG. 2B)
Procedure: as §1, with “produced. […]” for “produced.”

[6] = system: primary cultured adipocytes; test: Potassium conductivity and resting membrane potential in primary cultured adipocytes; assay type: cell-based, mouse (C57BL/6)
Procedure: as §2

Cc1cc(Cl)ccc1OCCNC(=O)c1cccs1 [ML402]
differentiation process ([1]; 3T3L1, 100 μM (FIG. 7)): inhibited in a concentration-dependent manner
amount of triglycerides ([1]; 3rd day, 100 μM from the time of differentiation, vs control group (FIG. 7)): did not show a significant difference
amount of triglycerides ([1]; 5th and 7th days, 100 μM from the time of differentiation (FIG. 7)): decreased in a concentration-dependent manner

COC(=O)C1=C(C)NC(C)=C(C(=O)OC)C1c1ccccc1[N+](=O)[O-] [nifedifine]
spadin-induced increase in calcium ions ([2]; with voltage-dependent calcium ion channel inhibitor (FIGS. 3B and 3C)): effectively inhibited
differentiation into adipocytes ([3]; with voltage-dependent calcium ion channel inhibitor, spadin-treated 3T3L1 (FIGS. 3D and 3E)): differentiation into adipocytes was also inhibited

spadin
intracellular calcium ion concentration ([2]; 30 minutes after spadin treatment (FIG. 3A)): a significant increase in calcium ions
differentiation into adipocytes [4]: differentiation into adipocytes is significantly increased
degree of differentiation into adipocytes ([3]; treated in the process of differentiation of 3T3L1 (FIG. 2C)): the degree of differentiation was significantly increased
potassium conductivity [5]: most of the potassium conductivity was decreased
resting membrane potential ([6]; 1 μM concentration (FIG. 4C)): the resting membrane potential was also increased
potassium ion conductivity ([6]; 1 μM concentration (FIGS. 4A and 4B)): significantly decreased
